Results: US9700603B2, “Use of antidotes to coagulation inhibitors indicated in the prevention or treatment of thromboembolic pathologies” (LABORATOIRE FRANCAIS DU FRACTIONNEMENT ET DES …, priority 2013, dated 2017)

Assays:
Assay type in all cases: biochemical
normal plasma pool [1] = experiment: aPTT with PTT-A; conditions: rivaroxaban 0.35 μg/mL in PNP, no FXa
[2] = test system: thrombin generation in normal plasma pool; experiment: Thrombin generation test (CAT), intrinsic pathway, cephalin alone
Description: (§1) The thrombin generation test consists of activating coagulation ex vivo either using a mixture of tissue factor and phospholipids, or using cephalin and then measuring the concentration of thrombin generated over time.
(§2) The reaction is started by the addition of 20 μL of Fluca-kit (substrate+CaCl2) which constitutes the start of the measurement of the appearance of thrombin. The appearance of fluorescence is measured on a fluorometer of the Fluoroskan Ascent type (ThermoLabsystems) at an excitation wavelength of 390 nm and emission wavelength of 460 nm. The thrombinograms (curves representing the intensity of fluorescence as a function of time) are then analyzed using the Thrombinoscope™ software which converts the fluorescence value to nM of thrombin by comparative calculation.
The reagents, the automated equipment and the experimental protocol are identical to those described in Example 1.

normal plasma pool [3] = experiment: Prothrombin time (PT) with RecombiPlastin
[4] = test system: thrombin generation in normal plasma; experiment: Thrombin generation (TGT) induced by tissue factor (0.5 pM)
Description: The effect of an overdose of FXa in normal plasma was assessed by measuring thrombin generation (TGT) following induction by tissue factor (0.5 pM) (FIG. 5, Table I). Doses of 0.03 μg/ml to 0.5 μg/ml of FXa were compared. The quantity of thrombin generated depends on the dose of FXa added.
A similar experiment was repeated in the presence of a therapeutic dose of 0.35 μg/ml of Rivaroxaban (FIG. 6, Table I). […] On the other hand, a correction of thrombin generation is obtained starting from 0.06 μg/ml (▪) up to a dose of 0.25 μg/ml (▴).

[5] = test system: thrombin generation in normal plasma pool; experiment: Thrombin generation test (TGT Fluoroskan), extrinsic pathway, TF 5 pM / PL 4 μM; conditions: rivaroxaban 0.35 μg/mL in PNP, no FXa
Description: as §1, §2
The reagents, the automaton and the experimental protocol are identical to those described in Example 1. […]

[6] = test system: thrombin generation in normal plasma pool; experiment: Thrombin generation test (TGT Fluoroskan), extrinsic pathway, TF 1 pM / PL 4 μM
Description: The stock solution of rivaroxaban at 436 μg/mL is diluted in 5% DMSO in order to obtain intermediate concentrations which, added to the NPP (Normal Pool Plasma), give final concentrations of rivaroxaban in μg per mL of plasma.
as §1, §2

[7] = test system: thrombin generation in normal plasma; experiment: Thrombin generation (TGT) induced by cephalin
Description: A series of similar experiments is carried out by inducing the initiation of coagulation by cephalin. The series of preliminary experiments mimics the extrinsic activation of coagulation. This second series of experiments mimics the intrinsic activation of coagulation. The presence of FXa in an increasing quantity in normal plasma (●) […] the speed of appearance of thrombin without changing the total quantity of thrombin generated (FIG. 7, Table II). The speed of appearance of the thrombin is correlated with the dose of FXa added. Shorter times to peak are obtained in the presence of FXa.
The effect of FXa following the induction of thrombin generation by cephalin is then measured in the presence of Rivaroxaban at 0.35 μg/ml (FIG. 8, Table II). […] The presence of FXa in an increasing concentration makes it possible to increase the quantity of thrombin generated in a dose-dependent manner, as well as to reduce the time to peak. A maximum quantity of thrombin is obtained in the case of a concentration comprised between 0.125 and 0.25 μg/ml.

[8] = rivaroxaban 0.35 μg/ml in PNP, no FX
[9] = Unicalibrator + 0.35 μg/ml Rivaroxaban, no hFXa
[10] = rivaroxaban 0.5 μg/mL in PNP, no FX (Table 2)
[11] = rivaroxaban 0.5 μg/ml in PNP, no FX (Table 1)

O=C(NC[C@H]1CN(c2ccc(N3CCOCC3=O)cc2)C(=O)O1)c1ccc(Cl)s1 [rivaroxaban]
aPTT with PTT-A (normal plasma pool [1]): 50.5 s
effect on ability to generate thrombin from normal plasma ([2]; 0.35 μg/mL of Rivaroxaban, activation with Cephalin): completely destroys the ability to generate thrombin
ETP (endogenous thrombin potential) [2, 8]: 230.5 nM·min
LT (lag time) [2, 8]: 48.17 min
Peak [2, 8]: 8.49 nM
ST (start time) [2, 8]: 116 min
TTP (time to peak) [2, 8]: 54 min
mVRI (mean velocity rate index) [2, 8]: 1.46 nM/min
PT with RecombiPlastin 2G (ISI: 1.0) (normal plasma pool [3]; rivaroxaban 0.35 μg/mL in PNP, no FXa): 26 s
PT (RecombiPlastin ISI: 1.0) (normal plasma pool [3]; rivaroxaban 0.5 μg/ml in PNP, no FX): 32.5 s
reduction of thrombin generation versus untreated plasma ([4]; 0.35 μg/ml of Rivaroxaban): approximately 75%
Lag time [4, 9]: 10.17 min
Peak [4, 9]: 10.69 nM
ttPeak [4, 9]: 20.5 min
ETP (endogenous thrombin potential) [5]: 772 nM·min
LT (lag time) [5]: 11.11 min
Peak [5]: 31.32 nM
ST (start time) [5]: 67 min
TTP (time to peak) [5]: 25.33 min
mVRI (mean velocity rate index) [5]: 2.20 nM/min
effect on ability to generate thrombin from normal plasma ([6]; 0.5 μg/mL of Rivaroxaban, activation by tissue factor and phospholipids): completely destroys the ability to generate thrombin
LT (lag time) [6, 10]: 30.59 min
Peak [6, 10]: 6.83 nM
TTP (time to peak) [6, 10]: 58.81 min
mVRI (mean velocity rate index) [6, 10]: 0.24 nM/min
LT (lag time) [6, 11]: 25.5 min
Peak [6, 11]: 7.42 nM
TTP (time to peak) [6, 11]: 49.33 min
mVRI (mean velocity rate index) [6, 11]: 0.31 nM/min
effect on thrombin generation induced by cephalin ([7]; Rivaroxaban at 0.35 μg/ml): completely inhibits thrombin generation
ETP [7, 9]: 0 nM
Peak [7, 9]: 0 nM
ttPeak [7, 9]: 0 min
